Literature values in patent US20080124279A1, “Colonic delivery using Zn/pectin beads with a Eudragit coating” (priority 2006, published 2008).
Read-outs that look alike come from different tables or passages of the source.

Assays:
VIM-2 = VIM-2 (Escherichia coli, UniProt Q5U7L7)
IMP-1 = IMP-1 (Serratia marcescens, UniProt P52699)
L-1(wt) = L-1(wt) (Stenotrophomonas maltophilia, UniProt P52700)
Chain of L-1(wt) (P52700 34-290): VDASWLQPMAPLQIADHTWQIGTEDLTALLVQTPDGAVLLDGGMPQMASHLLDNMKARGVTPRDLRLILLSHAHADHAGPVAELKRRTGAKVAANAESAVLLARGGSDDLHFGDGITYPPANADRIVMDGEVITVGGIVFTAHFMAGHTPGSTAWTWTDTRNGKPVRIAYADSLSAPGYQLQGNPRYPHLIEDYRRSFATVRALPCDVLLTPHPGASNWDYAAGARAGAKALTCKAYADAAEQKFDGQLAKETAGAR

Chain of IMP-1 (P52699 19-246 limits assumed): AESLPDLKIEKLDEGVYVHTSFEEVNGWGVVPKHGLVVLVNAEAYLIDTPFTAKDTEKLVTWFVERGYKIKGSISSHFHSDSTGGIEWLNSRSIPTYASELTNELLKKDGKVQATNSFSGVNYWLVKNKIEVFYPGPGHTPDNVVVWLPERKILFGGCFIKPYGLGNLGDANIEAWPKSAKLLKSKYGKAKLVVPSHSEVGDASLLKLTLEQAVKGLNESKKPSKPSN

| SMILES | Kcat (VIM-2) | Km (VIM-2; read-out: Km) | Kcat (IMP-1) | Km (IMP-1; read-out: Km) | Kcat (FEZ-1) | Km (FEZ-1) | Kcat (L-1(wt)) | Km (L-1(wt)) | Km (VIM-2) | Km (IMP-1) |
| --- | --- | --- | --- | --- | --- | --- | --- | --- | --- | --- |
| CO/N=C(\C(=O)N[C@@H]1C(=O)N2C(C(=O)O)=C(COC(C)=O)CS[C@H]12)c1csc(N)n1 [Cefotaxim] | 70 s⁻¹ | 12 µM | 1.3 s⁻¹ | 4 µM | 165 s⁻¹ | 0.07 mM | 270 s⁻¹ | 10 µM | – | – |
| CC1(C)S[C@@H]2[C@H](NC(=O)[C@H](NC(=O)N3CCNC3=O)c3ccccc3)C(=O)N2[C@H]1C(=O)O [Azlocillin] | 200 s⁻¹ | – | – | – | – | – | – | – | 200 µM | – |
| CC1(C)S[C@@H]2[C@H](NC(=O)[C@H](N)c3ccccc3)C(=O)N2[C@H]1C(=O)O [Ampicillin] | – | – | 950 s⁻¹ | – | >5.5 s⁻¹ | > 5 mM | 520 s⁻¹ | 55 µM | 90 µM | 200 µM |
| CCN1CCN(C(=O)N[C@@H](C(=O)N[C@@H]2C(=O)N3[C@@H]2SC(C)(C)[C@@H]3C(=O)O)c2ccccc2)C(=O)C1=O [Pipericillin] | 300 s⁻¹ | 125 µM | – | – | 50 s⁻¹ | 4.2 mM | – | – | – | – |
| CO/N=C(\C(=O)N[C@@H]1C(=O)N2C(C(=O)O)=C(COC(N)=O)CS[C@H]12)c1ccco1 [Cefuroxin] | 8 s⁻¹ | 20 µM | – | – | – | – | – | – | – | – |
| CO/N=C(\C(=O)N[C@@H]1C(=O)N2C(C(=O)[O-])=C(C[n+]3cccc4c3CCC4)CS[C@H]12)c1csc(N)n1 [Cefpirom] | 180 s⁻¹ | 180 µM | 9 s⁻¹ | 14 µM | – | – | – | – | – | – |
| CC1(C)S[C@@H]2[C@H](NC(=O)[C@H](C(=O)O)c3ccsc3)C(=O)N2[C@H]1C(=O)O [Ticarcillin] | 180 s⁻¹ | – | 1.1 s⁻¹ | – | >65 s⁻¹ | > 5 mM | – | – | 125 µM | 740 µM |
| C[C@H]1[C@H](NC(=O)/C(=N\OC(C)(C)C(=O)O)c2csc(N)n2)C(=O)N1S(=O)(=O)O [Aztreonam] | <0.01 s⁻¹ | – | >0.01 s⁻¹ | – | – | – | – | – | > 1000 µM | > 1000 µM |
| O=C(O)[C@H]1/C(=C/CO)O[C@@H]2CC(=O)N21 [Clavulanic Acid] | – | – | – | – | <0.01 s⁻¹ | > 1 mM | 11 s⁻¹ | 22 µM | – | – |
| CC1(C)S[C@@H]2[C@H](NC(=O)[C@H](NC(=O)N3CCN(S(C)(=O)=O)C3=O)c3ccccc3)C(=O)N2[C@H]1C(=O)O [Mezlocillin] | 200 s⁻¹ | – | – | – | – | – | – | – | 125 µM | – |
| CC1(C)S[C@@H]2[C@H](NC(=O)Cc3ccccc3)C(=O)N2[C@H]1C(=O)O [Benzylpenicillin] | 56 s⁻¹ | – | 320 s⁻¹ | – | 70 s⁻¹ | 0.59 mM | 600 s⁻¹ | 38 µM | 49 µM | 520 µM |
| NC(=O)OC[C@@H]1[C@H](NC(=O)/C(=N\OCC(=O)O)c2csc(N)n2)C(=O)N1S(=O)(=O)O [Carumonam] | – | – | >0.01 s⁻¹ | – | – | – | – | – | – | > 1000 µM |
| CC(=O)OCC1=C(C(=O)O)N2C(=O)[C@@H](NC(=O)Cc3cccs3)[C@H]2SC1 [Cephalothin] | 130 s⁻¹ | – | 48 s⁻¹ | – | – | – | 82 s⁻¹ | 8.9 µM | 11 µM | – |
| C[C@@H](O)[C@H]1C(=O)N2C(C(=O)O)=C(S[C@@H]3CN[C@H](C(=O)N(C)C)C3)[C@H](C)[C@H]12 [Meropenem] | 5 s⁻¹ | – | – | – | – | – | 157 s⁻¹ | 15 µM | 2 µM | – |
| CO[C@@]1(NC(=O)C(C(=O)O)c2ccsc2)C(=O)N2[C@@H](C(=O)O)C(C)(C)S[C@@H]21 (stereo partly drawn) [Timocillin] | 7.7 s⁻¹ | 390 µM | – | > 2000 µM | – | – | – | – | – | – |
| CC(C)(O/N=C(\C(=O)N[C@@H]1C(=O)N2C(C(=O)[O-])=C(C[n+]3ccccc3)CS[C@H]12)c1csc(N)n1)C(=O)O [Ceftazidin] | 3.6 s⁻¹ | 72 µM | 8 s⁻¹ | 44 µM | – | – | – | – | – | – |
| C[C@@H](O)[C@H]1C(=O)N2C(C(=O)O)=C(SCCN=CN)C[C@H]12 [Imipenem] | – | – | – | – | – | – | – | 57 µM | 9 µM | 39 µM |
| CO/N=C(\C(=O)N[C@@H]1C(=O)N2C(C(=O)[O-])=C(C[N+]3(C)CCCC3)CS[C@H]12)c1csc(N)n1 [Cefepim] | >40 s⁻¹ | > 400 µM | 7 s⁻¹ | 11 µM | >6 s⁻¹ | > 1 mM | – | – | – | – |
| CO[C@@]1(NC(=O)Cc2cccs2)C(=O)N2C(C(=O)O)=C(COC(N)=O)CS[C@@H]21 [Cefoxitin] | 15 s⁻¹ | – | – | – | – | – | 1 s⁻¹ | 3 µM | 13 µM | – |
| CC1(C)[C@H](C(=O)O)N2C(=O)C[C@H]2S1(=O)=O [Sulbactam] | 23 s⁻¹ | 320 µM | – | – | – | – | – | – | – | – |
| CO[C@@]1(NC(=O)C(C(=O)O)c2ccc(O)cc2)C(=O)N2C(C(=O)O)=C(CSc3nnnn3C)CO[C@@H]21 (stereo partly drawn) [Moxalactam] | 90 s⁻¹ | – | – | – | 3 s⁻¹ | 0.018 mM | – | – | 55 µM | – |
| C[C@@H](O)[C@H]1C(=O)N2C(C(=O)[O-])=C(SC3Cn4cnc[n+]4C3)[C@H](C)[C@H]12 (stereo partly drawn) [Biapenem] | 8.5 s⁻¹ | – | 160 s⁻¹ | – | 70 s⁻¹ | > 1 mM | 134 s⁻¹ | 32 µM | 15 µM | 28 µM |
| C[C@]1(Cn2ccnn2)[C@H](C(=O)O)N2C(=O)C[C@H]2S1(=O)=O [Tazobactam] | 28 s⁻¹ | – | – | – | 40 s⁻¹ | 0.7 mM | – | – | 875 µM | – |
| O=C(Cc1cccs1)N[C@@H]1C(=O)N2C(C(=O)O)=C(/C=C/c3ccc([N+](=O)[O-])cc3[N+](=O)[O-])CS[C@H]12 [Nitrocefin] | 770 s⁻¹ | – | 63 s⁻¹ | – | 90 s⁻¹ | 0.1 mM | 41 s⁻¹ | 4 µM | 18 µM | – |
| CC1(C)S[C@@H]2[C@H](NC(=O)C(C(=O)O)c3ccccc3)C(=O)N2[C@H]1C(=O)O (stereo partly drawn) [Cabenicillin] | 185 s⁻¹ | 205 µM | – | – | 35 s⁻¹ | 1.6 mM | – | – | – | – |
| O=C(Cc1cccs1)N[C@@H]1C(=O)N2C(C(=O)[O-])=C(C[n+]3ccccc3)CS[C@H]12 [Cephaloridin] | 140 s⁻¹ | 50 µM | 53 s⁻¹ | 22 µM | 16 s⁻¹ | 1 mM | – | – | – | – |
